In patent US20120270237A9, “METHODS FOR THE IDENTIFICATION OF KINASE INTERACTING MOLECULES AND FOR THE PURIFICATION OF KINASE PROTEINS” (Cellzone AG, priority 2009, published 2012):

How the values were obtained:
[1] = molecular target: BIKE (Homo sapiens, UniProt Q9NSY1); assay: Kinobeads competition binding, HL60 cell lysate; parameters: endogenous in cells; host or cells: HL60 cells; details: 10 μM free compound
Protocol: To one aliquot of cell lysate 10 μM of the free compound (FIG. 3, CZC31326) was added and allowed to bind to proteins in the lysate. Then the affinity matrix with the immobilized compound (Example 1) was added to capture proteins that were not interacting with the previously added free compound. Beads were separated from the lysate and bead bound proteins were eluted in SDS sample buffer and subsequently separated by SDS-Polyacrylamide gel electrophoresis (FIG. 4). Suitable gel bands were cut out and subjected to in-gel proteolytic digestion with trypsin. The second lysate aliquot was processed identically, however no free compound was added (DMSO solvent control). Peptides originating from samples 1 and 2 were labeled with iTRAQ reagents (iTRAQ 114 and iTRAQ 117) and the combined samples were analyzed with a nano-flow liquid chromatography system coupled online to a tandem mass spectrometer (LC-MS/MS) experiment followed by iTRAQ reporter ion quantification in the MS/MS spectra (Ross et al., 2004. Mol. Cell. Proteomics 3(12):1154-1169). Further experimental protocols can be found in WO2006/134056 and a previous publication (Bantscheff et al., 2007. Nature Biotechnology 25, 1035-1044). Sepharose-beads with the immobilized compound (100 μl beads per pull-down experiment) were equilibrated in lysis buffer and incubated with a cell lysate sample containing 50 mg of protein on an end-over-end shaker (Roto Shake Genie, Scientific Industries Inc.) for 2 hours at 4° C. Beads were collected, transferred to Mobicol-columns (MoBiTech 10055) and washed with 10 ml lysis buffer containing 0.4% NP40 detergent, followed by 5 ml lysis buffer containing 0.2% detergent. To elute bound proteins, 60 μl 2×SDS sample buffer was added to the column. The column was incubated for 30 minutes at 50° C. and the eluate was transferred to a siliconized microfuge tube by centrifugation. Proteins were then alkylated with 108 mM iodoacetamid. Proteins were then separated by SDS-Polyacrylamide electrophoresis (SDS-PAGE). The peptide extracts of samples treated with 10 μM of free compound (CZC31326) and the solvent control (0.5% DMSO) were treated with different variants of the isobaric tagging reagent (iTRAQ Reagents Multiplex Kit, part number 4352135, Applied Biosystems, Foster City, Calif., USA). The iTRAQ reagents are a set of multiplexed, amine-specific, stable isotope reagents that can label peptides on amino groups in up to four different biological samples enabling simultaneous identification and quantitation of peptides. The iTRAQ reagents were used according to instructions provided by the manufacturer. The samples were resuspended in 10 μl 50 mM TEAB solution, pH 8.5 and 10 μl ethanol were added. The iTRAQ reagent was dissolved in 120 μl ethanol and 10 μl of reagent solution were added to the sample. The labeling reaction was performed at room temperature for one hour on a horizontal shaker and stopped by adding 5 μl of 100 mM TEAB and 100 mM glycine in water. The two labeled sampled were then combined, dried in a vacuum centrifuge and resuspended in 10 μl of 0.1% formic acid in water. Relative protein quantitation was performed using peak areas of iTRAQ reporter ion signals essentially as described in an earlier publication (Bantscheff et al., 2007. Nature Biotechnology 25, 1035-1044).

[2] = molecular target: LYN (Homo sapiens, UniProt P07948); assay: Kinobeads competition binding, L-363 cell lysate; parameters: capturing and identification of kinases from L-363 cell lysate; endogenous in cells; host or cells: L-363 (DSMZ ACC49), treated with MG132 before harvest; details: 10 μM free compound, L-363 lysate
Protocol: (§1) To one aliquot of cell lysate 10 μM of the free compound (FIG. 3, CZC31326) was added and allowed to bind to proteins in the lysate. Then the affinity matrix with the immobilized compound was added to capture proteins that were not interacting with the previously added free compound. Beads were separated from the lysate and bead bound proteins were eluted in SDS sample buffer and subsequently separated by SDS-Polyacrylamide gel electrophoresis (FIG. 8). Suitable gel bands were cut out and subjected to in-gel proteolytic digestion with trypsin. The second lysate aliquot was processed identically, however no free compound was added (DMSO solvent control). Peptides originating from samples 1 and 2 were labeled with iTRAQ reagents (iTRAQ 114 and iTRAQ 117) and the combined samples were analyzed with a nano-flow liquid chromatography system coupled online to a tandem mass spectrometer (LC-MS/MS) experiment followed by iTRAQ reporter ion quantification in the MS/MS spectra as described in Example 2.
(§2) For this experiment the human plasma cell leukaemia line L-363 was used (German Collection of Microorganisms and Cell Cultures, DSMZ number ACC49, Braunschweig, Germany). Cells were treated for three hours with 20 μM of the proteasome inhibitor MG132 (Z-Leu-Leu-Leu-al, Sigma C2211) prior to cell harvesting.

[3] = molecular target: MAP2K6 (Homo sapiens, UniProt P52564); assay: Kinobeads competition binding, L-363 cell lysate; parameters: capturing and identification of kinases from L-363 cell lysate; endogenous in cells; host or cells: L-363 (DSMZ ACC49), treated with MG132 before harvest; details: 10 μM free compound, L-363 lysate
Protocol: as §1, §2

[4] = molecular target: RIPK2 (Homo sapiens, UniProt O43353); assay: Kinobeads competition binding, L-363 cell lysate; parameters: capturing and identification of kinases from L-363 cell lysate; endogenous in cells; host or cells: L-363 (DSMZ ACC49), treated with MG132 before harvest; details: 10 μM free compound, L-363 lysate
Protocol: as §1, §2

[5] = molecular target: BCR (Homo sapiens, UniProt P11274); assay: Kinobeads competition binding, L-363 cell lysate; parameters: capturing and identification of kinases from L-363 cell lysate; endogenous in cells; host or cells: L-363 (DSMZ ACC49), treated with MG132 before harvest; details: 10 μM free compound, L-363 lysate
Protocol: as §1, §2

RIPK2, sequence (O43353 whole entry): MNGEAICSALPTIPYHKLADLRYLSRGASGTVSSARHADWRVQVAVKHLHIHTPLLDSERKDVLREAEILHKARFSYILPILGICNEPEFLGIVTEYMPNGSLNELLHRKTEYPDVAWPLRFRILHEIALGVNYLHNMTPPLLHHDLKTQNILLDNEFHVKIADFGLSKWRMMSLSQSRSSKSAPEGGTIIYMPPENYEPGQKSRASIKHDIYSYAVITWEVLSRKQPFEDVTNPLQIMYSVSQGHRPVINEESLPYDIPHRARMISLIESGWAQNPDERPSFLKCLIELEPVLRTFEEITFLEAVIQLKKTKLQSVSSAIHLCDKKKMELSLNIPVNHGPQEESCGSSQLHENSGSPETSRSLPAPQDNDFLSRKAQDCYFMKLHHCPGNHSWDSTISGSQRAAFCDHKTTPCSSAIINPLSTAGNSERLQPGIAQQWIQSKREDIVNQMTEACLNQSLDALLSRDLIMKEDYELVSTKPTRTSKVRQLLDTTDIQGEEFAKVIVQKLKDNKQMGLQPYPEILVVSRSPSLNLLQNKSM
MAP2K6, sequence (P52564 whole entry): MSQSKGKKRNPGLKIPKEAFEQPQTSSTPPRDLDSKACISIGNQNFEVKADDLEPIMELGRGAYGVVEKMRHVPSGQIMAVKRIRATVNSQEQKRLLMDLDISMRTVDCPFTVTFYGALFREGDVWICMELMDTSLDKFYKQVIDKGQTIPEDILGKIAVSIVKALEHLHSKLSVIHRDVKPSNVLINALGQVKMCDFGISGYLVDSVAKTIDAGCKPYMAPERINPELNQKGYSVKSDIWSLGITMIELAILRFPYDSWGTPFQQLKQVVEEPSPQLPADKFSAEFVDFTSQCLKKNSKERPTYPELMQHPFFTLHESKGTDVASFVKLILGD
BCR, sequence (P11274 whole entry): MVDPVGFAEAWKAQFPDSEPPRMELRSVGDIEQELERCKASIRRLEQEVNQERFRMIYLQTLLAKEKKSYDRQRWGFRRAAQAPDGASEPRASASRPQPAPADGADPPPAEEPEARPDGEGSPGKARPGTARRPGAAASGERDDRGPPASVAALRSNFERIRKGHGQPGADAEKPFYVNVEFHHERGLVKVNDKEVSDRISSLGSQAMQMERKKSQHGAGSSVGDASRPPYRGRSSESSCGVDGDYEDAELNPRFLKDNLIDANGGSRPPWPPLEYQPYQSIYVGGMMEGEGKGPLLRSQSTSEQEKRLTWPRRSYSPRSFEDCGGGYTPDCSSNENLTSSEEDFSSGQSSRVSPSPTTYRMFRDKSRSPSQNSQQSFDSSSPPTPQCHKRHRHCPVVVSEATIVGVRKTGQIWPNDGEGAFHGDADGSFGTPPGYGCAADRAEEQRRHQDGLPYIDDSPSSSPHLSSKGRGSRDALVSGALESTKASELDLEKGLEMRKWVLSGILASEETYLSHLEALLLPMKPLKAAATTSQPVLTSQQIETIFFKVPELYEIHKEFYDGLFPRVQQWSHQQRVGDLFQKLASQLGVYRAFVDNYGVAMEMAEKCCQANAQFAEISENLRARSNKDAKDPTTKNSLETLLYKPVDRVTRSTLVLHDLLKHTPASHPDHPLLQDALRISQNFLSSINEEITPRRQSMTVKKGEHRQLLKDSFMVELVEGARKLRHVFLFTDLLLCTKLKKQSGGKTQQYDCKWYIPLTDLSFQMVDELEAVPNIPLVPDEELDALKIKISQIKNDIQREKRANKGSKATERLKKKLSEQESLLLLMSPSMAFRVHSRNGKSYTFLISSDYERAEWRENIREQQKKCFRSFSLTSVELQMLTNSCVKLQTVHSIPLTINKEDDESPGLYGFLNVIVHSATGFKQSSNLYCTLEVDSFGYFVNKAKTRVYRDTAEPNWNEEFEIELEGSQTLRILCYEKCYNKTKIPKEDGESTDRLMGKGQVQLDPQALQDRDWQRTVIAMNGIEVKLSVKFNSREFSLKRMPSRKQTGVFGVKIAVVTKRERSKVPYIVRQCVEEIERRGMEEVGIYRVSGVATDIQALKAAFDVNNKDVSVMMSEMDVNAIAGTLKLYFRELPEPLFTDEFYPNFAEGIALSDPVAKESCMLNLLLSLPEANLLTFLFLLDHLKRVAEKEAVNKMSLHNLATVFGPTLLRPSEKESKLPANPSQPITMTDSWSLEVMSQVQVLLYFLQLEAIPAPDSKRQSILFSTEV
LYN, sequence (P07948 whole entry): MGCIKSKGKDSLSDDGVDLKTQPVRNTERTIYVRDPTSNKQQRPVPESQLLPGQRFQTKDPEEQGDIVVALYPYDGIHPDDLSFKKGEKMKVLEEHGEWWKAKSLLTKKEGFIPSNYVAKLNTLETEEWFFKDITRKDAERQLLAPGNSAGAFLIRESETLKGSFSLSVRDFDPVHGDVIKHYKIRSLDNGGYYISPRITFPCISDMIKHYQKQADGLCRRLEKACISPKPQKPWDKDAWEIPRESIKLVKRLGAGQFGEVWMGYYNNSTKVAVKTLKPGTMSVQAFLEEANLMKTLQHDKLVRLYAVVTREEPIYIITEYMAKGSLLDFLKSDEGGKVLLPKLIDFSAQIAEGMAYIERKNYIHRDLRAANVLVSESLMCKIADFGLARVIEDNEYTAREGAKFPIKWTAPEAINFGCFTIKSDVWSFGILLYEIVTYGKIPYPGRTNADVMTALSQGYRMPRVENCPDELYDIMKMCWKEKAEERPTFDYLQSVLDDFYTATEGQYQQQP
BIKE, sequence (Q9NSY1 whole entry): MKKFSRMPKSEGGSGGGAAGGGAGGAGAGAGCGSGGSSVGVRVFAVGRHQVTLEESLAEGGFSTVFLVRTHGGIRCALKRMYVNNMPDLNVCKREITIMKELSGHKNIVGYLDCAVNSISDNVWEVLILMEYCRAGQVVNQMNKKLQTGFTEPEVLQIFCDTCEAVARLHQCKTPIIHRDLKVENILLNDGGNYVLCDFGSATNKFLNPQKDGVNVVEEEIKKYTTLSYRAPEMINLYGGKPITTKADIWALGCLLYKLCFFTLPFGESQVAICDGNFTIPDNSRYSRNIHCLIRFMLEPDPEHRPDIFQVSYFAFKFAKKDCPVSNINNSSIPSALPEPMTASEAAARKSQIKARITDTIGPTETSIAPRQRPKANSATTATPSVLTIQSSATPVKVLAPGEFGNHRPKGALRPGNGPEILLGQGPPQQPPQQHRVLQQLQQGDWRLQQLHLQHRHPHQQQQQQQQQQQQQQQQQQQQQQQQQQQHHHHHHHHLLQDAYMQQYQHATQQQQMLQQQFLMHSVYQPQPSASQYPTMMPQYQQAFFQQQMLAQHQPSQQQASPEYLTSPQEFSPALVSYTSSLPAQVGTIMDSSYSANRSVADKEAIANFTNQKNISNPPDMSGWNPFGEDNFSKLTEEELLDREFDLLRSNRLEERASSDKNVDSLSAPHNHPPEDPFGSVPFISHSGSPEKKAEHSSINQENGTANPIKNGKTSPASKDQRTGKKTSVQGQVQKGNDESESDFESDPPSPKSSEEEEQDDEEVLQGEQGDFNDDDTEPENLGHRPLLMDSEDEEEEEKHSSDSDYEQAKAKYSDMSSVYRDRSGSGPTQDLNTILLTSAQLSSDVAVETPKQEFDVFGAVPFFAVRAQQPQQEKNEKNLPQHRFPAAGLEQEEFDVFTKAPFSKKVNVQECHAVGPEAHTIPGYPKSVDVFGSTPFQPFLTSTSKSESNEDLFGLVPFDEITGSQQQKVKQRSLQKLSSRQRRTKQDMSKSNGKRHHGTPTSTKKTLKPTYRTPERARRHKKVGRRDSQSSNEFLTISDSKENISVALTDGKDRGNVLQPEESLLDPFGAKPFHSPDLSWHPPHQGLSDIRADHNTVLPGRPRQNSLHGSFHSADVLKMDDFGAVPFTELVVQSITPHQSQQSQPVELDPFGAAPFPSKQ

inhibition at 10 µM [1]: 97.6%
inhibition at 10 µM [2]: 94.5%
inhibition at 10 µM [3]: 94.2%
inhibition at 10 µM [4]: 95.5%
inhibition at 10 µM [5]: 93.6%
Compound: CS(=O)(=O)Nc1ccccc1Nc1nc(Nc2cccc(OCCN)c2)ncc1Cl [CZC31326, N-(2-(2-(3-(2-aminoethoxy)phenylamino)-5-chloropyrimidin-4-ylamino)phenyl)methanesulfonamide]
